The results in this text go back to patent US6376497B1, “Antifungal azole derivatives having a fluorinated vinyl group and process for preparing same” (Korea Research Institute of Chemical Technology, priority 1999, dated 2002).

What all share (assay): In vitro antifungal activity, microbroth dilution MIC
Holding throughout (format): cell-based
In general terms: Dilution methods test growth across graded concentrations, often in twofold steps.

Experiment [1] relates to Torulopsis glabrata B. 16205. The conditions noted are these: T. glabrata B. 16205, RPMI-1640, 35° C., 4 to 48 hours. The procedure, abridged: (§1)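 Broth microdilution adapted from NCCLS M27, in RPMI-1640 with 0.165 M MOPS, pH 7.0. Yeast or mould inoculum at 2×10^3 CFU/ml was mixed 1:1 with DMSO-derived compound solutions (200 to 0.10 μg/ml before mixing) and incubated at 35 °C for 4 to 48 h. MIC was the concentration showing no growth.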

Experiment [2] deals with Cryptococcus neoformans A. 34144. The conditions noted are these: Cry. neoformans A. 34144, RPMI-1640, 35° C., 4 to 48 hours. The procedure, abridged: as §1
For experiment [3], the system named is Trichophyton mentagrophytes B. 32663. Conditions: T. mentagrophytes B. 32663, RPMI-1640, 35° C., 4 to 48 hours. In a few lines:
as §1

Experiment [4] deals with Candida pseudotropicalis K. 11658. The conditions noted are these: C. pseudotropicalis K. 11658, RPMI-1640, 35° C., 4 to 48 hours. In a few lines: as §1
Experiment [5] deals with Candida parapsitosis A. 7330. The conditions noted are these: C. parapsitosis A. 7330, RPMI-1640, 35° C., 4 to 48 hours. The procedure, abridged: as §1
In experiment [6] the test system is Aspergillus niger A. 16404. Conditions: A. niger A. 16404, RPMI-1640, 35° C., 4 to 48 hours. The procedure, abridged:
as §1

Experiment [7] concerns Candida tropicalis A. 13803. Conditions: C. tropicalis A. 13803, RPMI-1640, 35° C., 4 to 48 hours. In a few lines: as §1
For the next experiment, the system named is Candida krusei K. 11655. Conditions: C. krusei K. 11655, RPMI-1640, 35° C., 4 to 48 hours. The procedure, abridged:
as §1

For experiment [8], the system named is Trichophyton mentagrophytes A. 9129. The conditions noted are these: T. mentagrophytes A. 9129, RPMI-1640, 35° C., 4 to 48 hours. In a few lines:
as §1

The next experiment has as its system Candida albicans C1-2. Conditions: C. albicans C1-2, RPMI-1640, 35° C., 4 to 48 hours. In a few lines: as §1
Experiment [9] deals with Candida albicans IFO. 1385. The conditions noted are these: C. albicans IFO. 1385, RPMI-1640, 35° C., 4 to 48 hours. The procedure, abridged: as §1
For experiment [10], the system named is Candida albicans A. 10231. The conditions noted are these: C. albicans A. 10231, RPMI-1640, 35° C., 4 to 48 hours. In a few lines:
as §1

The subject of experiment [11] is Cryptococcus neoformans B. 42419. The conditions noted are these: Cry. neoformans B. 42419, RPMI-1640, 35° C., 4 to 48 hours. The procedure, abridged: as §1
Experiment [12] has as its system Aspergillus furnigatus B. 19119. Conditions: A furnigatus B. 19119, RPMI-1640, 35° C., 4 to 48 hours. The procedure, abridged: as §1
Experiment [13] concerns Cryptococcus neoformans IFM. 40092. The conditions noted are these: Cry. neoformans IFM. 40092, RPMI-1640, 35° C., 4 to 48 hours. The procedure, abridged:
as §1

In brackets after ≈: the same amount, converted by molar mass.

As for `Cc1cc(C)c(C=C(F)OCC2COC(Cn3ccnc3)(c3ccc(Cl)cc3Cl)O2)cc1C` (stereo not drawn) [Ex. 7], the “Minimal inhibitory concentration (MIC)” value in [1] stood at 6.25 µg/mL (≈ 12.7 µM); in experiment [2], 1.56 µg/mL (≈ 3.17 µM); in [3], 1.56 µg/mL (≈ 3.17 µM); in experiment [4] it was 12.5 µg/mL (≈ 25.4 µM); in experiment [5], 12.5 µg/mL (≈ 25.4 µM); in [6], 12.5 µg/mL (≈ 25.4 µM). For the same molecule, the “Minimal inhibitory concentration (MIC)” value turned out to be 25.0 µg/mL (≈ 50.9 µM) in experiment [7]; 12.5 µg/mL (≈ 25.4 µM) in the experiment on Candida krusei K. 11655; 6.25 µg/mL (≈ 12.7 µM) in [8]; 12.5 µg/mL (≈ 25.4 µM) with Candida albicans C1-2; 1.56 µg/mL (≈ 3.17 µM) in experiment [9]; 12.5 µg/mL (≈ 25.4 µM) in experiment [10]. Besides, the “Minimal inhibitory concentration (MIC)” value in experiment [11] worked out at 1.56 µg/mL (≈ 3.17 µM); in [12] it was 6.25 µg/mL (≈ 12.7 µM); in experiment [13], 0.78 µg/mL (≈ 1.59 µM).

As to `COc1cccc(C=C(F)OCC2COC(Cn3ccnc3)(c3ccc(Cl)cc3Cl)O2)c1` (stereo not drawn) [Ex. 8], the “Minimal inhibitory concentration (MIC)” value in experiment [1] was found to be 6.25 µg/mL (≈ 13 µM); in experiment [2] it was 3.13 µg/mL (≈ 6.53 µM); in experiment [3] it was 1.56 µg/mL (≈ 3.25 µM); in experiment [4] it was 12.5 µg/mL (≈ 26.1 µM); in [5] it was 12.5 µg/mL (≈ 26.1 µM); in experiment [6] it was 6.25 µg/mL (≈ 13 µM). In addition, the “Minimal inhibitory concentration (MIC)” value stood at 25.0 µg/mL (≈ 52.2 µM) in [7]; 6.25 µg/mL (≈ 13 µM) in the experiment on Candida krusei K. 11655; 3.13 µg/mL (≈ 6.53 µM) in experiment [8]; 25.0 µg/mL (≈ 52.2 µM) in the experiment with Candida albicans C1-2; 1.56 µg/mL (≈ 3.25 µM) in [9]; 12.5 µg/mL (≈ 26.1 µM) in experiment [10]. The entries for the “Minimal inhibitory concentration (MIC)” value in experiment [11], in experiment [12] and in [13] were 1.56 µg/mL (≈ 3.25 µM), 6.25 µg/mL (≈ 13 µM) and 0.78 µg/mL (≈ 1.63 µM), respectively.

Turning to `COc1ccc(C=C(F)OCC2COC(Cn3ccnc3)(c3ccc(Cl)cc3Cl)O2)cc1` (stereo not drawn) [Ex. 9], the “Minimal inhibitory concentration (MIC)” value is 6.25 µg/mL (≈ 13 µM) in [1]; 3.13 µg/mL (≈ 6.53 µM) in [2]; 1.56 µg/mL (≈ 3.25 µM) in experiment [3]; 6.25 µg/mL (≈ 13 µM) in [4]; 12.5 µg/mL (≈ 26.1 µM) in experiment [5]; 6.25 µg/mL (≈ 13 µM) in experiment [6]. Further, the “Minimal inhibitory concentration (MIC)” value in experiment [7] was 25.0 µg/mL (≈ 52.2 µM); in the experiment on Candida krusei K. 11655 it was 6.25 µg/mL (≈ 13 µM); in experiment [8] it was 3.13 µg/mL (≈ 6.53 µM); in the experiment with Candida albicans C1-2 it was 25.0 µg/mL (≈ 52.2 µM); in [9], 1.56 µg/mL (≈ 3.25 µM); in [10], 12.5 µg/mL (≈ 26.1 µM). The “Minimal inhibitory concentration (MIC)” value in [11] came to 1.56 µg/mL (≈ 3.25 µM); in experiment [12], 6.25 µg/mL (≈ 13 µM); in experiment [13], 0.78 µg/mL (≈ 1.63 µM).

In the case of `CCOc1ccc(C=C(F)OCC2COC(Cn3ccnc3)(c3ccc(Cl)cc3Cl)O2)cc1` (stereo not drawn) [Ex. 10], the “Minimal inhibitory concentration (MIC)” value in experiment [1] is 12.5 µg/mL (≈ 25.3 µM); in [2], 1.56 µg/mL (≈ 3.16 µM); in experiment [3], 1.56 µg/mL (≈ 3.16 µM); in [4] it was 6.25 µg/mL (≈ 12.7 µM); in [5] it was 12.5 µg/mL (≈ 25.3 µM); in experiment [6], 50.0 µg/mL (≈ 101 µM). Further, the “Minimal inhibitory concentration (MIC)” value is 50.0 µg/mL (≈ 101 µM) in [7]; 25.0 µg/mL (≈ 50.7 µM) in the experiment on Candida krusei K. 11655; 6.25 µg/mL (≈ 12.7 µM) in experiment [8]; 12.5 µg/mL (≈ 25.3 µM) in the experiment with Candida albicans C1-2; 1.56 µg/mL (≈ 3.16 µM) in [9]; 25.0 µg/mL (≈ 50.7 µM) in [10]. In addition, the “Minimal inhibitory concentration (MIC)” value in [11] was 1.56 µg/mL (≈ 3.16 µM); in experiment [12] it was 12.5 µg/mL (≈ 25.3 µM); in [13] it was “≦0.10 μg/ml”.

With `CC(C)Oc1cccc(C=C(F)OCC2COC(Cn3ccnc3)(c3ccc(Cl)cc3Cl)O2)c1` (stereo not drawn) [Ex. 11], the “Minimal inhibitory concentration (MIC)” value is 12.5 µg/mL (≈ 24.6 µM) in [1]; 1.56 µg/mL (≈ 3.07 µM) in experiment [2]; 1.56 µg/mL (≈ 3.07 µM) in experiment [3]; 3.13 µg/mL (≈ 6.17 µM) in experiment [4]; 6.25 µg/mL (≈ 12.3 µM) in experiment [5]; 50.0 µg/mL (≈ 98.5 µM) in [6]. For the same molecule, the “Minimal inhibitory concentration (MIC)” value is 50.0 µg/mL (≈ 98.5 µM) in [7]; 12.5 µg/mL (≈ 24.6 µM) in the experiment with Candida krusei K. 11655; 12.5 µg/mL (≈ 24.6 µM) in [8]; 25.0 µg/mL (≈ 49.3 µM) with Candida albicans C1-2; 1.56 µg/mL (≈ 3.07 µM) in experiment [9]; 25.0 µg/mL (≈ 49.3 µM) in experiment [10]. In addition, the “Minimal inhibitory concentration (MIC)” value in experiment [11] came to 1.56 µg/mL (≈ 3.07 µM); in experiment [12] it was 12.5 µg/mL (≈ 24.6 µM); in [13], 0.39 µg/mL (≈ 0.769 µM).

As to `FC(=Cc1ccc2c(c1)OCO2)OCC1COC(Cn2ccnc2)(c2ccc(Cl)cc2Cl)O1` (stereo not drawn) [Ex. 12], the “Minimal inhibitory concentration (MIC)” value came out at 6.25 µg/mL (≈ 12.7 µM) in experiment [1]; 1.56 µg/mL (≈ 3.16 µM) in experiment [2]; 0.78 µg/mL (≈ 1.58 µM) in [3]; 3.13 µg/mL (≈ 6.34 µM) in [4]; 6.25 µg/mL (≈ 12.7 µM) in [5]; 3.13 µg/mL (≈ 6.34 µM) in [6]. Moreover, the “Minimal inhibitory concentration (MIC)” value in [7] was determined as 50.0 µg/mL (≈ 101 µM); with Candida krusei K. 11655 it was 6.25 µg/mL (≈ 12.7 µM); in [8], 0.78 µg/mL (≈ 1.58 µM); in the experiment with Candida albicans C1-2, 25.0 µg/mL (≈ 50.7 µM); in experiment [9], 1.56 µg/mL (≈ 3.16 µM); in experiment [10], 12.5 µg/mL (≈ 25.3 µM). Besides, the “Minimal inhibitory concentration (MIC)” value came out at 0.78 µg/mL (≈ 1.58 µM) in experiment [11], 1.56 µg/mL (≈ 3.16 µM) in experiment [12] and 0.39 µg/mL (≈ 0.791 µM) in [13].

Turning to `FC(=Cc1cccc(Cl)c1)OCC1COC(Cn2ccnc2)(c2ccc(Cl)cc2Cl)O1` (stereo not drawn) [Ex. 13], the “Minimal inhibitory concentration (MIC)” value in experiment [1] was 6.25 µg/mL (≈ 12.9 µM); in experiment [2], 0.39 µg/mL (≈ 0.806 µM); in experiment [3], “≦0.10 μg/ml”; in experiment [4], 1.56 µg/mL (≈ 3.22 µM); in experiment [5], 50.0 µg/mL (≈ 103 µM); in experiment [6], 3.13 µg/mL (≈ 6.47 µM). In addition, the “Minimal inhibitory concentration (MIC)” value in [7] was 50.0 µg/mL (≈ 103 µM); with Candida krusei K. 11655, 25.0 µg/mL (≈ 51.7 µM); in experiment [8], 0.78 µg/mL (≈ 1.61 µM); with Candida albicans C1-2, 3.13 µg/mL (≈ 6.47 µM); in experiment [9] it was 0.39 µg/mL (≈ 0.806 µM); in [10], 6.25 µg/mL (≈ 12.9 µM). Besides, the results for the “Minimal inhibitory concentration (MIC)” value in experiment [11], in [12] and in experiment [13] were 0.39 µg/mL (≈ 0.806 µM), 1.56 µg/mL (≈ 3.22 µM) and “≦0.10 μg/ml”, respectively.
